# Assay results as given in patent US11026901B2, “Treatment or prevention of cardiovascular events via the administration of a colchicine derivative” (Murray and Poole Enterprises, LTD., priority 2012, dated 2021).
# Tested on: patients with angiographically proven, clinically stable coronary disease
# Experiment: LoDoCo trial: cardiovascular events with colchicine 0.5 mg/day added to standard secondary prevention therapy
# Type: in vivo, human
# Description: We employed a PROBE [Prospective Randomized, Open, Blinded End-point] design
# All patients signed informed consent before randomization.
# All other treatments were continued as usual.
# The secondary outcomes were analysed similarly.
# [1] = intention-to-treat, in each group
# [2] = intention-to-treat, treatment [n = 282] vs control [n = 250]
# [3] = on-treatment analysis, treatment [n = 243] vs control [n = 250]
compound,measurement,setting,value
COc1cc2c(c(OC)c1OC)-c1ccc(OC)c(=O)cc1[C@@H](NC(C)=O)CC2 [colchicine],"risk of a cardiovascular event, including an ACS, out of hospital cardiac arrest and non-cardio-embolic ischemic stroke","colchicine 0.5 mg/day added to standard therapy, stable coronary disease",significantly reduces
same,patients who died,colchicine group (ten in the control group),4 patients
same,"Primary Outcome (composite ACS, out of hospital cardiac arrest or non-cardio-embolic ischemic stroke), patients with event","intention-to-treat, colchicine 0.5 mg/day [n = 282], median follow up 36 months",15 n
same,"number needed to treat, primary outcome","intention-to-treat, colchicine 0.5 mg/day vs control",11
same,"stent related ACS with evidence of acute stent thrombosis, patients",[1],2
same,"stent related ACS with evidence of significant in-stent stenosis, patients",[1],2
same,"Acute Coronary Syndrome, HR; 95% CI",[2],0.33
same,"Non-Stent Related ACS, HR; 95% CI",[2],0.26
same,"Non-Stent Related AMI, HR; 95% CI",[2],0.25
same,"Non-Stent Related UA, HR; 95% CI",[2],0.27
same,"Primary Outcome, HR 95% CI","intention-to-treat, treatment [n = 282] vs control [n = 250], cox proportional hazards",0.33
same,"Primary Outcome, patients with event","on-treatment analysis (tolerant and compliant beyond first month), colchicine 0.5 mg/day [n = 243]",11 n
same,"Acute Coronary Syndrome, HR; 95% CI",[3],"0.28 (0.13, 0.58)"
same,"Non-Cardio-Embolic Stroke, HR; 95% CI",[3],"0.27 (0.03, 2.42)"
same,"Non-Stent Related ACS, HR; 95% CI",[3],"0.21 (0.09, 0.50)"
same,"Non-Stent Related AMI, HR; 95% CI",[3],"0.30 (0.10, 0.91)"
same,"Non-Stent Related UA, HR; 95% CI",[3],"0.13 (0.03, 0.57)"
same,"OOH Cardiac Arrest, HR; 95% CI",[3],"0.55 (0.05, 6.03)"
